Assay results from patent US8822463B2, “Methylcyclohexane derivatives and uses thereof” (Sk Biopharmaceuticals Co., Ltd., priority 2010, dated 2014).
Counter-ions that a name gives are not always drawn.

Legend:
[1] = system: LPS-induced NO production in mouse monocytes (RAW); assay: LPS-induced NO production inhibition test, mouse monocytes (RAW); assay type: cell-based; conditions: Monocyte, RAW cells, 20 ng/ml LPS, 24 hours, Griess reagent
Protocol: (§1) Mouse monocytes (RAW) and mouse microglia (BV2) cells were cultured on a 96-well transparent plate (Nunc) in such a way that each of the wells contained 60,000 and 35,000 cells respectively. After 18 hours, when stabilized, the cells were treated with lipopolysaccharide (Sigma, USA, Cat No. L2630) in a morbid state derived from 20 ng/ml of Escherichia coli O111:B4 and 4 different concentrations (50 uM, 12.5 uM, 3.1 uM, and 0.8 uM) of the compounds synthesized according to Examples 1 to 55. Then, the cells were cultured for 24 hours, and a concentration of increased NO was measured. The NO concentration was determined by measuring absorption at a wavelength of 540 nm after a Griess reagent including 0.1% N-(1-naphthyl)ethylenediamine dihydrochloride, 1% sulfanilamide, and 2.5% phosphoric acid were added thereto.

[2] = system: LPS-induced NO production in mouse microglia (BV2); assay: LPS-induced NO production inhibition test, mouse microglia (BV2); assay type: cell-based; conditions: BV-2, BV2 cells, 20 ng/ml LPS, 24 hours, Griess reagent
Protocol: as §1

| SMILES | IC50 [1] [µM] | IC50 [2] [µM] |
| --- | --- | --- |
| O=C(NCc1ccccn1)OC1CCC(COC(=O)N2CCNCC2)CC1 (centres unmarked) [Example 28, HCl salt] | > 50 | 44.8 |
| O=C(NCCc1ccc[n+]([O-])c1)OC1CCC(COC(=O)N2CCCC2)CC1 (centres unmarked) [Example 6, pyrrolidine-1-carboxylic acid 4-[2-(1-oxy-pyridin-3-yl)-ethylcarbamoyloxy]-cyclohexylmethyl ester] | 41.2 | > 50 |
| O=C(NCc1cccc(Cl)n1)OC1CCC(COC(=O)N2CCCC2)CC1 (centres unmarked) [Example 14, pyrrolidine-1-carboxylic acid 4-(6-chloro-pyridin-2-ylmethylcarbamoyloxy)-cyclohexylmethyl ester] | 21.7 | 22.3 |
| O=C(NC1CCC(COC(=O)N2CCCC2)CC1)OCc1ccc(C(F)(F)F)nc1 (centres unmarked) [Example 50, pyrrolidine-1-carboxylic acid 4-(6-trifluoromethyl-pyridin-3-ylmethoxycarbonylamino)-cyclohexylmethyl ester] | 5.7 | 14.2 |
| O=C(Cc1ccccn1)OC1CCC(COC(=O)N2CCCC2)CC1 (centres unmarked) [Example 33, pyrrolidine-1-carboxylic acid 4-(2-pyridin-2-yl-acetoxy)-cyclohexylmethyl ester] | > 50 | > 50 |
| CN1CCN(C(=O)OCC2CCC(OC(=O)NCc3ccccc3)CC2)CC1 (centres unmarked) [Example 29, 4-methyl-piperazine-1-carboxylic acid 4-benzylcarbamoyloxy-cyclohexylmethyl ester] | 46.1 | > 50 |
| O=C(NCc1ccncc1)OC1CCC(COC(=O)N2CCCC2)CC1 (centres unmarked) [Example 9, pyrrolidine-1-carboxylic acid 4-(pyridin-4-ylmethylcarbamoyloxy)-cyclohexylmethyl ester] | > 50 | > 50 |
| O=C(NCc1ccccn1)OC1CCC(COC(=O)N2CCOCC2)CC1 (centres unmarked) [Example 27] | 50 | > 50 |
| O=C(NCCc1ccccc1)OC1CCC(COC(=O)N2CCCC2)CC1 (centres unmarked) [Example 1, pyrrolidine-1-carboxylic acid 4-phenethylcarbamoyloxy-cyclohexylmethyl ester] | 27.9 | 19.9 |
| O=C(OCC1CCC(NCc2ccccc2)CC1)N1CCCC1 (centres unmarked) [Example 37, pyrrolidine-1-carboxylic acid 4-benzylaminocyclohexylmethyl ester HCl salt] | 46.1 | > 50 |
| O=C(NC1CCC(COC(=O)N2CCCC2)CC1)OCc1cccnc1Cl (centres unmarked) [Example 44, pyrrolidine-1-carboxylic acid 4-(2-chloro-pyridin-3-ylmethoxycarbonylamino)-cyclohexylmethyl ester] | 21.7 | 16.8 |
| O=C(NCc1ccc[n+]([O-])c1)OC1CCC(COC(=O)N2CCCC2)CC1 (centres unmarked) [Example 12, pyrrolidine-1-carboxylic acid 4-(1-oxy-pyridin-3-ylmethylcarbamoyloxy)-cyclohexylmethyl ester] | > 50 | > 50 |

Further lines, results first:

| IC50 [1] [µM] | IC50 [2] [µM] | SMILES |
| --- | --- | --- |
| 27.9 | > 50 | O=C(NCc1cccc[n+]1[O-])OC1CCC(COC(=O)N2CCCC2)CC1 (centres unmarked) [Example 13, pyrrolidine-1-carboxylic acid 4-(1-oxy-pyridin-2-ylmethylcarbamoyloxy)-cyclohexylmethyl ester] |
| 32 | 26.3 | O=C(NC1CCC(COC(=O)N2CCCC2)CC1)OCc1cccc(Cl)n1 (centres unmarked) [Example 46, pyrrolidine-1-carboxylic acid 4-(6-chloro-pyridin-2-ylmethoxycarbonylamino)-cyclohexylmethyl ester] |
| > 50 | > 50 | COc1ccc(CCNC2CCC(COC(=O)N3CCCC3)CC2)cc1 (centres unmarked) [Example 39, pyrrolidine-1-carboxylic acid 4-[2-(4-methoxy-phenyl)-ethylamino]-cyclohexylmethyl ester HCl salt] |
| 22.3 | > 50 | O=C(NC1CCC(COC(=O)N2CCCC2)CC1)OCc1ccc[n+]([O-])c1 (centres unmarked) [Example 52, pyrrolidine-1-carboxylic acid 4-(1-oxy-pyridin-3-ylmethoxycarbonylamino)-cyclohexylmethyl ester] |
| 24.9 | 15.5 | O=C(Nc1cccc[n+]1[O-])OC1CCC(COC(=O)N2CCCC2)CC1 (centres unmarked) [Example 25, pyrrolidine-1-carboxylic acid 4-(1-oxy-pyridin-2-ylcarbamoyloxy)-cyclohexylmethyl ester] |
| 46.1 | 5.3 | CN(Cc1ccccn1)C(=O)OC1CCC(COC(=O)N2CCCC2)CC1 (centres unmarked) [Example 10, pyrrolidine-1-carboxylic acid 4-(methyl-pyridin-2-ylmethyl-carbamoyloxy)-cyclohexylmethyl ester] |
| 46.1 | 36.8 | O=C(NCc1ccccn1)OC1CCC(COC(=O)N2CCCCC2)CC1 (centres unmarked) [Example 26] |
| 13.5 | 10.2 | Cc1ncccc1COC(=O)NC1CCC(COC(=O)N2CCCC2)CC1 (centres unmarked) [Example 48, pyrrolidine-1-carboxylic acid 4-(2-methyl-pyridin-3-ylmethoxycarbonylamino)-cyclohexylmethyl ester] |
| 10.2 | > 50 | O=C(NCc1cc[n+]([O-])cc1)OC1CCC(COC(=O)N2CCCC2)CC1 (centres unmarked) [Example 11, pyrrolidine-1-carboxylic acid 4-(1-oxy-pyridin-4-ylmethylcarbamoyloxy)-cyclohexylmethyl ester] |
| > 50 | 48.7 | O=C(NCCc1cccc[n+]1[O-])OC1CCC(COC(=O)N2CCCC2)CC1 (centres unmarked) [Example 5, pyrrolidine-1-carboxylic acid 4-[2-(1-oxy-pyridin-2-yl)-ethylcarbamoyloxy]-cyclohexylmethyl ester] |
| > 50 | > 50 | O=C(Nc1cc(Cl)nc(Cl)c1)OC1CCC(COC(=O)N2CCCC2)CC1 (centres unmarked) [Example 24, pyrrolidine-1-carboxylic acid 4-(2,6-dichloro-pyridin-4-ylcarbamoyloxy)-cyclohexylmethyl ester] |
| 9.9 | 7.5 | O=C(NC1CCC(COC(=O)N2CCCC2)CC1)OCc1cc(Cl)nc(Cl)c1 (centres unmarked) [Example 45, pyrrolidine-1-carboxylic acid 4-(2,6-dichloro-pyridin-4-ylmethoxycarbonylamino)-cyclohexylmethyl ester] |
| 11.1 | 13.8 | O=C(NCc1ccc(C(F)(F)F)nc1)OC1CCC(COC(=O)N2CCCC2)CC1 (centres unmarked) [Example 19, pyrrolidine-1-carboxylic acid 4-(6-trifluoromethyl-pyridin-3-ylmethylcarbamoyloxy)-cyclohexylmethyl ester] |
| 30.3 | 32.9 | O=C(NCCc1ccncc1)OC1CCC(COC(=O)N2CCCC2)CC1 (centres unmarked) [Example 4, pyrrolidine-1-carboxylic acid 4-(2-pyridin-4-yl-ethylcarbamoyloxy)-cyclohexylmethyl ester] |
| > 50 | > 50 | O=C(OCC1CCC(OCc2cccc[n+]2[O-])CC1)N1CCCC1 (centres unmarked) [Example 36, pyrrolidine-1-carboxylic acid 4-(1-oxy-pyridin-2-ylmethoxy)-cyclohexylmethyl ester] |
| 35.8 | 21.7 | Cc1cccc(NC(=O)OC2CCC(COC(=O)N3CCCC3)CC2)n1 (centres unmarked) [Example 22, pyrrolidine-1-carboxylic acid 4-(6-methyl-pyridin-2-ylcarbamoyloxy)-cyclohexylmethyl ester] |
